# Reference: patent publication US20230141603A1, “BENZODIAZEPINE DERIVATIVES AS GABA A GAMMA1 PAM” (Hoffmann-La Roche Inc., priority 2021, published 2023)
# Target: T1, h-GABAA α5β2γ1 (Homo sapiens, UniProt P31644+Q8N1C3)
# T1 construct: expressed in transfected cells; host or cells: HEK293F cells (ThermoFisher R79007), membranes
# T1 sequence (P31644 32-462): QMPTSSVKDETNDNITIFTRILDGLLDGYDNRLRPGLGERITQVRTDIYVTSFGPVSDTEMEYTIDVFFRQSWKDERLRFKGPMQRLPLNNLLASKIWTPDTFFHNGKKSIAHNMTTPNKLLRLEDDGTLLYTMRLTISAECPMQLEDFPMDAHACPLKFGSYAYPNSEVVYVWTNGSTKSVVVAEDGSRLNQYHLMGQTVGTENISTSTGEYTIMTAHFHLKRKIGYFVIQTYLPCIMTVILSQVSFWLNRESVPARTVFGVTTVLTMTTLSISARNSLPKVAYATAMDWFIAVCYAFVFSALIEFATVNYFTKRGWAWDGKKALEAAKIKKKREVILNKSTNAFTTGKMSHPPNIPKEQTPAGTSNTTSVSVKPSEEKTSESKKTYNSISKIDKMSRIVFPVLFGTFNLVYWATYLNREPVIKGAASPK
# T1 sequence (P47870 25-512 partner limits assumed): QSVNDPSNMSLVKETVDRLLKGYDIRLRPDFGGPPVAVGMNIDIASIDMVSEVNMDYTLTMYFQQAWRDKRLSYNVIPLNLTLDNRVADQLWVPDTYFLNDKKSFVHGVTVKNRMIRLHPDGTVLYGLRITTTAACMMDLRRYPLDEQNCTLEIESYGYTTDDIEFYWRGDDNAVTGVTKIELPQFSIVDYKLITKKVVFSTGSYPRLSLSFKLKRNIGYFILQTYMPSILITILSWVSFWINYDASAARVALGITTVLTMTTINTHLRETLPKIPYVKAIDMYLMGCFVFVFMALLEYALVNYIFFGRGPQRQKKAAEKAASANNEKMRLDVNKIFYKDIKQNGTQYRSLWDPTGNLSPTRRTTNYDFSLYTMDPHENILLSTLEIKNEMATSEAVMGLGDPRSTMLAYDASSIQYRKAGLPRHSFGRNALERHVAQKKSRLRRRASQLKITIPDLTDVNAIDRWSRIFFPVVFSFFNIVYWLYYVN
# T1 sequence (Q8N1C3 36-465): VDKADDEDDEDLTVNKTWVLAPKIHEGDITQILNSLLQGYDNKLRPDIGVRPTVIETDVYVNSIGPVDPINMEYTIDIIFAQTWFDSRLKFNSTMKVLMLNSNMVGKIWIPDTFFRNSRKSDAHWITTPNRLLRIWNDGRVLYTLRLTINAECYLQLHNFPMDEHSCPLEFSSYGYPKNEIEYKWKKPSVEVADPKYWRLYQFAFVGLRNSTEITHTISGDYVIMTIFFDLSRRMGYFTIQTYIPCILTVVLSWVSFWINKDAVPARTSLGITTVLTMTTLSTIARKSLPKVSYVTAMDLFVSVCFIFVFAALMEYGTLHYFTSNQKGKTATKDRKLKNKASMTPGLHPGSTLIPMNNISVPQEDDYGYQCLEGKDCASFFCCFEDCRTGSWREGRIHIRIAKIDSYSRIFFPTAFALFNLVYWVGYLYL
# Assay: Radioligand binding assay, [3H]RO7239181 competition, HEK293F membranes
# Method: The affinity of compounds at GABAA γ1 subunit-containing receptors was measured by competition for [^3H]RO7239181 (67.3 Ci/mmol; Roche) binding to membranes from HEK293F cells (ThermoFisher R79007) expressing human (transiently transfected) receptors of composition […], α2β2γ1, α1β2γ1. For better protein expression of the α2 subunit-containing receptors, the 28 amino acid long signal peptide (Met1 to Ala28) of the human GABAA α2 subunit was substituted by the 31 amino acid long signal peptide (Met1 to Ser31) of human GABAA α5 subunit.
# Harvested pellets from HEK293F cells expressing the different GABAA receptor subtypes were resuspended in Mannitol Buffer pH 7.2-7.4 (Mannitol 0.29M, Triethylamine 10 mM, Acetic acid 10 mM, EDTA 1 mM plus protease inhibitors (20 tablets Complete, Roche Diagnostics Cat. No. 05 056 489 001 per liter)), washed two times and then resuspended at 1:10 to 1:15 dilution in the same buffer. Cell disruption was performed by stirring the suspension in a Parr vessel #4637 at 435 psi for 15 minutes, and then the suspensions were centrifuged at 1000×g for 15 minutes at 4° C. (Beckman Avanti J-HC; rotor JS-4.2). The supernatant (S1) was transferred in a 21 Schott flask and the pellet (P1) was resuspended with Mannitol Buffer up to 175 ml. The resuspended pellet was transferred into a 250 ml Corning centrifugal beaker and centrifuged at 1500×g for 10 minutes at 4° C. (Beckman Avanti J-HC; rotor JS-4.2). The supernatant (S1) was then transferred in the 21 Schott flask and the pellet was discarded. The supernatants (S1) were centrifuged in 500 ml Beckman polypropylene centrifugal beaker at 15′000×g for 30 minutes at 4° C. (Beckman Avanti J-20 XP; rotor JLA-10.500). The pellet (P2) was resuspended with Mannitol Buffer 1:1 and frozen at −80° C. The supernatant (S2) was centrifuged in 100 ml Beckman polypropylene centrifugal tubes at 48000×g for 50 minutes at 4° C. (Beckman Avanti J-20 XP; rotor JA-18). The supernatant (S3) was discarded and the pellet (P3) was resuspended with 1:1 Mannitol Buffer. The P2 and P3 protein concentration was determined with the BIORAD Standard assay method with bovine serum albumin as standard and measured on the NANO-Drop 1000. The membrane suspension was aliquots (500 μl per tube) and stored at −80° C. until required. Membrane homogenates were resuspended and polytronised (Polytron PT1200E Kinematica AG) in Potassium Phosphate 10 mM, KCl 100 mM binding buffer at pH 7.4 to a final assay concentration determined with a previous experiment.
# Radioligand binding assays were carried out in a volume of 200 μL (96-well plates) which contained 100 μL of cell membranes, [^3H]RO7239181 at a concentration of 1.5 nM (α5β2γ1) or 20-30 nM (α1β2γ1, α2β2γ1) and the test compound in the range of [0.3-10000]×10^−9 M. Nonspecific binding was defined by 10×10^−6 (α5β2γ1) and 30×10^−6 M RO7235136 and typically represented less than 5% (α5β2γ1) and less than 20% (α1β2γ1, α2β2γ1) of the total binding. Assays were incubated to equilibrium for 1 hour at 4° C. and then, membranes were filtered onto unifilter (96-well white microplate with bonded GF/C filters preincubated 20-50 minutes in 0.3% Polyethylenimine) with a Filtermate 196 harvester (Packard BioScience) and washed 4 times with cold Potassium Phosphate 10 mM pH 7.4, KCl 100 mM binding buffer. After drying, filter-retained radioactivity was detected by liquid scintillation counting. Ki values were calculated using Excel-Fit (Microsoft) and are the means of two determinations.
row,SMILES,Ki [nM]
1,"Cc1nnc2n1-c1ccc(Br)c(Cl)c1C(c1c(F)cccc1F)=NC2 [Example 1, 8-bromo-7-chloro-6-(2,6-difluorophenyl)-1-methyl-4H-[1,2,4]triazolo[4,3-a][1,4]benzodiazepine]",1.1
2,"Fc1ccccc1C1=NCc2nnc(C3CC3)n2-c2ccc(Br)c(Cl)c21 [Example 2, 8-bromo-7-chloro-1-cyclopropyl-6-(2-fluorophenyl)-4H-[1,2,4]triazolo[4,3-a][1,4]benzodiazepine]",5.7
3,"Fc1ccccc1C1=NCc2nnc(-c3cccnn3)n2-c2ccc(Br)c(Cl)c21 [Example 3, 8-bromo-7-chloro-6-(2-fluorophenyl)-1-pyridazin-3-yl-4H-[1,2,4]triazolo[4,3-a][1,4]benzodiazepine]",1.5
4,"Cc1nnc2n1-c1ccc(Cl)c(Cl)c1C(c1ccccc1F)=NC2 [Example 4, 7,8-dichloro-6-(2-fluorophenyl)-1-methyl-4H-[1,2,4]triazolo[4,3-a][1,4]benzodiazepine]",5.4
5,"Cc1nnc2n1-c1ccc(Cl)c(Cl)c1C(c1c(F)cccc1F)=NC2 [Example 5, 7,8-dichloro-6-(2,6-difluorophenyl)-1-methyl-4H-[1,2,4]triazolo[4,3-a][1,4]benzodiazepine]",0.8
6,"Cc1nnc2n1-c1ccc(C3CC3)c(Cl)c1C(c1c(F)cccc1F)=NC2 [Example 6, 7-chloro-8-cyclopropyl-6-(2,6-difluorophenyl)-1-methyl-4H-[1,2,4]triazolo[4,3-a][1,4]benzodiazepine]",12.7
7,"Fc1cccc(F)c1C1=NCc2nncn2-c2ccc(Br)c(Cl)c21 [Example 7, 8-bromo-7-chloro-6-(2,6-difluorophenyl)-4H-[1,2,4]triazolo[4,3-a][1,4]benzodiazepine]",0.4
8,"Fc1ccccc1C1=NCc2nncn2-c2ccc(Br)c(Cl)c21 [Example 8, 8-bromo-7-chloro-6-(2-fluorophenyl)-4H-[1,2,4]triazolo[4,3-a][1,4]benzodiazepine]",2.3
9,"O=c1[nH]nc2n1-c1ccc(Cl)c(Cl)c1C(c1c(F)cccc1F)=NC2 [Example 9, 7,8-dichloro-6-(2,6-difluorophenyl)-2,4-dihydro-[1,2,4]triazolo[4,3-a][1,4]benzodiazepin-1-one]",0.7
10,"Fc1ccccc1C1=NCc2nnc(-c3cccnn3)n2-c2ccc(Cl)c(Cl)c21 [Example 10, 7,8-dichloro-6-(2-fluorophenyl)-1-pyridazin-3-yl-4H-[1,2,4]triazolo[4,3-a][1,4]benzodiazepine]",1.4
11,"Fc1cccc(F)c1C1=NCc2nnc(C3CCOCC3)n2-c2ccc(Cl)c(Cl)c21 [Example 11, 7,8-dichloro-6-(2,6-difluorophenyl)-1-tetrahydropyran-4-yl-4H-[1,2,4]triazolo[4,3-a][1,4]benzodiazepine]",8.3
12,"Fc1cccc(F)c1C1=NCc2nnc(-c3ccncn3)n2-c2ccc(Cl)c(Cl)c21 [Example 12, 7,8-dichloro-6-(2,6-difluorophenyl)-1-pyrimidin-4-yl-4H-[1,2,4]triazolo[4,3-a][1,4]benzodiazepine]",2.3
13,"O=c1[nH]nc2n1-c1ccc(Br)c(Cl)c1C(c1c(F)cccc1F)=NC2 [Example 13, 8-bromo-7-chloro-6-(2,6-difluorophenyl)-2,4-dihydro-[1,2,4]triazolo[4,3-a][1,4]benzodiazepin-1-one]",1.1
14,"Fc1cccc(F)c1C1=NCc2nnc(-c3cccnn3)n2-c2ccc(Cl)c(Cl)c21 [Example 14, 7,8-dichloro-6-(2,6-difluorophenyl)-1-pyridazin-3-yl-4H-[1,2,4]triazolo[4,3-a][1,4]benzodiazepine]",0.8
15,"Fc1cccc(F)c1C1=NCc2nncn2-c2ccc(Cl)c(Cl)c21 [Example 15, 7,8-dichloro-6-(2,6-difluorophenyl)-4H-[1,2,4]triazolo[4,3-a][1,4]benzodiazepine]",0.9
16,"Cc1ccc2c(c1Cl)C(c1c(F)cccc1F)=NCc1n[nH]c(=O)n1-2 [Example 16, 7-chloro-6-(2,6-difluorophenyl)-8-methyl-2,4-dihydro-[1,2,4]triazolo[4,3-a][1,4]benzodiazepin-1-one]",1.8
17,"Cc1ccc2c(c1Cl)C(c1c(F)cccc1F)=NCc1nncn1-2 [Example 17, 7-chloro-6-(2,6-difluorophenyl)-8-methyl-4H-[1,2,4]triazolo[4,3-a][1,4]benzodiazepine]",1.3
18,"Fc1ccccc1C1=NCc2nnc(-c3ccncn3)n2-c2ccc(Cl)c(Cl)c21 [Example 18, 7,8-dichloro-6-(2-fluorophenyl)-1-pyrimidin-4-yl-4H-[1,2,4]triazolo[4,3-a][1,4]benzodiazepine]",2.6
19,"COCCc1nnc2n1-c1ccc(Cl)c(Cl)c1C(c1c(F)cccc1F)=NC2 [Example 19, 7,8-dichloro-6-(2,6-difluorophenyl)-1-(2-methoxyethyl)-4H-[1,2,4]triazolo[4,3-a][1,4]benzodiazepine]",2.5
20,"Cc1ccc2c(c1Cl)C(c1c(F)cccc1F)=NCc1nnc(C)n1-2 [Example 20, 7-chloro-6-(2,6-difluorophenyl)-1,8-dimethyl-4H-[1,2,4]triazolo[4,3-a][1,4]benzodiazepine]",2.9
21,"CC(F)(F)c1ccc2c(c1Cl)C(c1c(F)cccc1F)=NCc1nncn1-2 [Example 21, 7-chloro-8-(1,1-difluoroethyl)-6-(2,6-difluorophenyl)-4H-[1,2,4]triazolo[4,3-a][1,4]benzodiazepine]",4.6
22,"Cc1nnc2n1-c1ccc(C(C)(F)F)c(Cl)c1C(c1c(F)cccc1F)=NC2 [Example 22, 7-chloro-8-(1,1-difluoroethyl)-6-(2,6-difluorophenyl)-1-methyl-4H-[1,2,4]triazolo[4,3-a][1,4]benzodiazepine]",4.3
